Experiments:
[1] = Cytotoxicity against African green monkey Vero A cells assessed as reduction in cell viability after 6 to 7 days by MTS assay; assay type: cell-based; conditions: chlorocebus sabaeus
[2] = tested on: Chikungunya virus; assay: Antiviral activity against Chikungunya virus Indian ocean strain 899 infected in African green monkey Vero A cells assessed as reduction in viral-induced cytopathic effect after 6 to 7 days by MTS/PMS assay; assay type: functional, organism-based; conditions: Indian ocean 899, Vero
[3] = Selectivity index, ratio of CC50 for African green monkey Vero A cells to EC50 for Chikungunya virus Indian ocean strain 899 infected in African green monkey Vero A cells; assay type: toxicity; conditions: read-out: Ratio CC50/EC50

Row | Compound | CC50 [1] | EC50 [2] | selectivity ratio [3]
1 | C=C(C)C1C=C[C@@H](OC(C)=O)[C@@]23CO[C@@](C)([C@H](OC(=O)c4ccccc4)[C@@]4(O)C[C@H](C)[C@H](OC(=O)CC)[C@@H]4[C@H]2OC(C)=O)[C@H]13 (stereo partly specified) | 158 µM | 84 µM | 1.9
2 | CC(=O)OC[C@]12[C@H](OC(=O)c3ccccc3)[C@H]3[C@@H](OC(C)=O)[C@@H](C)C[C@]3(O)C(=O)[C@@](C)(OC(C)=O)[C@@H]1[C@@H]1[C@H](C[C@H]2OC(C)=O)C1(C)C | 171 µM | 78 µM | 2.2
3 | CC(=O)OCC1=C[C@H]2[C@@H]3C(C)(C)[C@]3(OC(=O)C(C)C(C)C)C[C@@H](C)[C@]2(O)[C@@H]2C=C(C)C(=O)[C@H]2C1 (stereo partly specified) | 42.7 µM | 4 µM | 10.6
4 | CCC(=O)O[C@@H]1[C@@H]2[C@@H](OC(=O)c3ccccc3)[C@]3(COC(C)=O)[C@H](O)C[C@H]4[C@@H]([C@H]3[C@](C)(O)C(=O)[C@@]2(OC(C)=O)C[C@@H]1C)C4(C)C | 63.5 µM | 11 µM | 5.8
5 | CCC(=O)O[C@@H]1[C@@H]2[C@@H](OC(=O)c3ccccc3)[C@@]3(COC(C)=O)[C@@H]([C@@H]4[C@H](C[C@H]3OC(C)=O)C4(C)C)[C@](C)(CC(C)=O)C(=O)[C@@]2(O)C[C@@H]1C |  | > 144 µM | 
6 | CCC(=O)O[C@@H]1[C@@H]2[C@@H](OC(=O)c3ccccc3)[C@@]3(COC(C)=O)[C@@H]([C@@H]4[C@H](C[C@H]3OC(C)=O)C4(C)C)[C@](C)(OC(=O)c3cccnc3)C(=O)[C@@]2(O)C[C@@H]1C | > 159 µM | > 107 µM | < 2.4
7 | CCC(=O)O[C@@H]1[C@@H]2[C@@H](OC(=O)C(C)CC)[C@@]3(COC(C)=O)[C@@H]([C@@H]4[C@H](C[C@H]3OC(C)=O)C4(C)C)[C@](C)(OC(C)=O)C(=O)[C@@]2(O)C[C@@H]1C (stereo partly specified) | 153 µM | 107 µM | 2.2
8 | CC(=O)OC[C@]12[C@H](OC(=O)c3ccccc3)[C@H]3[C@@H](OC(C)=O)[C@@H](C)C[C@]3(OC(C)=O)C(=O)[C@@](C)(O)[C@@H]1[C@@H]1[C@H](C[C@H]2OC(C)=O)C1(C)C |  | > 152 µM | 
9 | CCC(C)C(=O)O[C@@H]1[C@H]2[C@@H](OC(C)=O)[C@@H](C)C[C@]2(O)C(=O)[C@@](C)(OC(C)=O)[C@@H]2[C@@H]3[C@H](C[C@@H](OC(C)=O)[C@@]12COC(C)=O)C3(C)C (stereo partly specified) | > 157 µM | > 50 µM | < 5
10 | CC(=O)OCC1=C[C@H]2[C@@H]3C(C)(C)[C@]3(OC(=O)C(C)C(C)C)C[C@@H](C)[C@]2(O)[C@@H]2C=C(C)C(=O)[C@@H]2C1 (stereo partly specified) |  | > 11 µM | 
11 | CCN(CC)CCCC(C)Nc1ccnc2cc(Cl)ccc12 (stereo unspecified) [CHLOROQUINE] | 89 µM | 11 µM | 

Reference: ChEMBL document CHEMBL4190241, “Isolation of Premyrsinane, Myrsinane, and Tigliane Diterpenoids from Euphorbia pithyusa Using a Chikungunya Virus Cell-Based Assay and Analogue Annotation by Molecular Networking” (J Nat Prod, 2017)
